SMILES strings stand for the structures. Activity calls are given as the source filed them. The rule behind the calls is not given here.

The experiment has as its target T1, Dihydrofolate synthase/folylpolyglutamate synthase (Escherichia coli (strain K12)) (UniProt P08192).
T1 sequence (whole entry): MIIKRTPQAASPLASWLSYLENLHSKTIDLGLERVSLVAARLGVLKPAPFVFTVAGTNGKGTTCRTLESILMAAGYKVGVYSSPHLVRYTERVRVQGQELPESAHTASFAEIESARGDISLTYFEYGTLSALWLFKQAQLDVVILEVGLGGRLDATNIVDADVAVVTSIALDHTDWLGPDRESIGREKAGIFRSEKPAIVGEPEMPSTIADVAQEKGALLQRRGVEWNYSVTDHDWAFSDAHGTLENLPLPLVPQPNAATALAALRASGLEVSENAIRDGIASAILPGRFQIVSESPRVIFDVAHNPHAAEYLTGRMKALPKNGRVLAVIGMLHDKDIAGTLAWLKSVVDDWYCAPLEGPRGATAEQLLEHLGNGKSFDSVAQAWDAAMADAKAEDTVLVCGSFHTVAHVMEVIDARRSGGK
Nature of the experiment: Inhibition of Escherichia coli K-12 recombinant His-tagged folylpoly-gamma-glutamate synthetase expressed in Escherichia coli BL21 at 200 uM LC-MS/MS method. The note with it: NCM3722.
Take `COc1cc(Cc2cnc(N)nc2N)cc(OC)c1OC`: the inhibition result is “inactive”. On to `Nc1nc(=O)c2c([nH]1)NCC(CNc1ccc(C(=O)N[C@@H](CCC(=O)O)C(=O)O)cc1)=N2`, for which the inhibition result was “Active”. `Nc1nc(=O)c2nc(CNc3ccc(C(=O)N[C@@H](CCC(=O)O)C(=O)O)cc3)cnc2[nH]1`: the inhibition entry was “inactive”.

For `CN1c2c([nH]c(N)nc2=O)NCC1CNc1ccc(C(=O)N[C@@H](CCC(=O)O)C(=O)O)cc1` (some centres undefined), the inhibition entry is “inactive”.

These data come from ChEMBL document CHEMBL1221215, “A domino effect in antifolate drug action in Escherichia coli” (Nat Chem Biol, 2008).
